# How the values were obtained:
# [1] = system: patients with systolic or mixed systolic-diastolic hypertension; experiment: Double-blind 12-week comparison of omapatrilat and enalapril: trough pulsatile hemodynamics (cuff pressure, arterial tonometry, Doppler flow); assay type: in vivo, human; settings: for Brachial pressures: Systolic pressure: trough (24 h after last dose), titrated to 80 mg omapatrilat or 40 mg enalapril; for Brachial pressures: Systolic pressure / PfPb Temporal overlap / Augmentation index / Brachial pressures: Diastolic pressure / Brachial pressures: Mean pressure / Brachial pressures: Pulse pressure / Carotid-femoral PWV / Carotid-radial PWV / Central hemodynamics: Heart rate / Central hemodynamics: Mean flow / Central hemodynamics: Peak flow / Central hemodynamics: Peripheral resistance (DSC) / Central hemodynamics: Pulse pressure / Central hemodynamics: Systolic pressure / Central stiffness parameters: Characteristic impedance (DSC) / Central stiffness parameters: First impedance modulus (DSC) / Central stiffness parameters: Proximal aortic compliance (CD) / End-systolic pressure / Forward wave, Pf / PbPf Amplitude ratio / Pressure at ti / Reflected wave arrival time, ti / Reflected wave, Pb / Systolic ejection period: mean ± SD; for PfPb Temporal overlap: % of systolic ejection period; for change in characteristic impedance / reduction in mean arterial pressure: change from baseline at 12 weeks; for change in characteristic impedance: only subjects with reduction in mean arterial pressure between 0 and −40 mmHg; for reduction in mean arterial pressure: only subjects with reduction in mean arterial pressure between 0 and −40 mmHg (68 omapatrilat, 59 enalapril); for changes in regional pulse wave velocities (carotid-femoral and carotid-radial) (FIG. 4): in vivo
# Procedure: The following study was performed to compare treatment with the vasopeptidase inhibitor omapatrilat and the angiotensin converting enzyme inhibitor enalapril.
# Study subjects. Male or female subjects age 18 years or older were eligible if they were in sinus rhythm and had systolic or mixed systolic-diastolic hypertension, defined as a seated systolic blood pressure ≧160 mmHg if newly diagnosed or ≧140 mmHg if currently treated and diastolic blood pressure ≦110 mmHG. Patients with known or suspected secondary forms of hypertension were excluded. Patients with a history of transient ischemic attacks within the prior 12 months or myocardial infarction or angina within the prior 6 months were excluded. All patients with heart failure, documented ejection fraction <45%, valvular heart disease or clinically significant peripheral vascular disease (bruit or diminished pulse in any of the brachial, radial, femoral or carotid arteries or blood pressure difference between upper extremities >6 mmHg) were excluded. Additional exclusion criteria included renal or renovascular disease, uncontrolled diabetes (glucose >200 mg/dl fasting or >220 mg/dL nonfasting), autoimmune disease, multiple drug allergies, bronchospastic disease requiring chronic medication. Laboratory exclusion criteria included hemoglobin <9 g/dl, platelet count <80,000/μl, white cell count <3000/μl, neutrophil count <1500/μl, serum potassium <3.5 or >5.2 mmol/L, alanine aminotransferase or aspartate aminotransferase greater than three times the upper limits of normal or serum creatinine >2.5 mg/dL. Failure to obtain a technically satisfactory baseline study, as determined by the core lab, was an exclusion criterion. If an initial baseline study had potentially remediable technical limitations, a repeat study was allowed within 2-9 days.
# Treatment protocol: A single-blind placebo lead-in period of 1-2 weeks, during which the seated blood pressure was confirmed to be ≧160 mmHg and <200 mmHg and the diastolic pressure ≦110 mmHg, after withdrawl of antihypertensive medications, was followed by a double-blind active treatment period of 12 weeks. Baseline hemodynamic studies were performed at the end of the placebo lead-in period between 6:00 and 10:00 a.m. with the patient in a fasting state prior to taking morning medications and off all antihypertensive medications for at least 1 week. Patients were randomized within 2-9 days following an approved baseline study. Treatment was initiated with either 10 mg omapatrilat or 10 mg enalapril and was titrated at two and four weeks to doses of 40 then 80 mg omapatrilat or 20 then 40 mg enalapril. […] No concomitant antihypertensive medications were permitted during the study. A trough hemodynamic study, the primary endpoint of the trial was performed at the end of the active treatment period, 24 hours after the last prior dose of study medication, under identical conditions as the baseline study. Patients were then given one additional dose of study medication, which was followed 4 hours later by a final (peak) hemodynamic study. In order to focus on long-term effects of therapy, the primary endpoint of the study was prospectively defined as the trough change from baseline in pulsatile hemodynamics.
# Hemodynamic data acquisition: Subjects were studied in the supine position after approximately 10 minutes of rest. Using a semi-automated computer-controlled device, auscultatory blood pressure was obtained 3-5 times at 2 minute intervals with a goal of obtaining 3 sequential readings that agreed to within 5 mmHg for systolic and diastolic. Arterial tonometry and ECG were obtained form the brachial, radial, femoral and carotid arteries using a custom transducer. Next, the patient was placed in the left lateral decubitus position and echocardiographic images of the left ventricular outflow tract were obtained from a parasternal long axis view. […]
# [2] = system: patients who had left ventricular dysfunction and class II-IV congestive heart failure; settings: cited from earlier work
SMILES,"shortening of the systolic ejection period ([1]; 12 weeks, trough)",Brachial pressures: Systolic pressure ([1]; 12 weeks),"PfPb Temporal overlap ([1]; 12 weeks, trough)","Augmentation index ([1]; 12 weeks, trough)","Brachial pressures: Diastolic pressure ([1]; 12 weeks, trough)","Brachial pressures: Mean pressure ([1]; 12 weeks, trough)","Brachial pressures: Pulse pressure ([1]; 12 weeks, trough)","Carotid-femoral PWV ([1]; 12 weeks, trough)","Carotid-radial PWV ([1]; 12 weeks, trough)","Central hemodynamics: Heart rate ([1]; 12 weeks, trough)","Central hemodynamics: Mean flow ([1]; 12 weeks, trough)","Central hemodynamics: Peak flow ([1]; 12 weeks, trough)","Central hemodynamics: Peripheral resistance (DSC) ([1]; 12 weeks, trough)","Central hemodynamics: Pulse pressure ([1]; 12 weeks, trough)","Central hemodynamics: Systolic pressure ([1]; 12 weeks, trough)","Central stiffness parameters: Characteristic impedance (DSC) ([1]; 12 weeks, trough)","Central stiffness parameters: First impedance modulus (DSC) ([1]; 12 weeks, trough)","Central stiffness parameters: Proximal aortic compliance (CD) ([1]; 12 weeks, trough)","End-systolic pressure ([1]; 12 weeks, trough)","Forward wave, Pf ([1]; 12 weeks, trough)",also measured
"O=C(N[C@H]1CCS[C@H]2CCC[C@@H](C(=O)O)N2C1=O)[C@H](S)Cc1ccccc1 (relative stereo) [Omapatrilat, [4S-[4α(R*),7α,10aβ]]-octahydro-4-[(2-mercapto-1-oxo-3-phenylpropyl)amino]-5-oxo-7H-pyrido[2,1-b][1,3]thiazepine-7-carboxylic acid]",not seen,147 ± 20 mmHg,64 ± 12 %,19 ± 13 %,76 ± 11 mmHg,105 ± 13 mmHg,71 ± 18 mmHg,11.4 ± 3.1 m/s,10.1 ± 1.4 m/s,64 ± 9 min⁻¹,73 ± 16 mL/s,312 ± 68 mL/s,1986 ± 449 dyne × sec / cm^5,71 ± 22 mmHg,147 ± 24 mmHg,208 ± 70 dyne × sec / cm^5,323 ± 119 dyne × sec / cm^5,0.53 ± 0.26^† 10^−5 cm^4 / dyne,114 ± 16 mmHg,54 ± 16 mmHg,"PbPf Amplitude ratio ([1]; 12 weeks, trough): 47 ± 7%; Pressure at ti ([1]; 12 weeks, trough): 132 ± 20 mmHg; Reflected wave arrival time, ti ([1]; 12 weeks, trough): 116 ± 36 ms; Reflected wave, Pb ([1]; 12 weeks, trough): 25 ± 7 mmHg; Systolic ejection period ([1]; 12 weeks, trough): 320 ± 26 ms; peripheral resistance ([1]; 12 weeks, trough, versus enalapril): reduced more; amplitude of the forward pressure wave ([1]; 12 weeks, unchanged peak flow): markedly reduced; change in characteristic impedance adjusted for baseline mean arterial pressure and change in mean arterial pressure ([1]; 12 weeks, versus enalapril, P<0.05): remained significant; change in characteristic impedance [1]: −37±58 dyne×sec/cm^5; reduction in mean arterial pressure [1]: −13.8±7.4 mmHg; changes in central pulse pressure (FIG. 2) ([1]; compared to enalapril): greater reduction in the central pulse pressure compared to enalapril; change in peripheral (brachial) systolic, diastolic, and pulse pressure (FIG. 1) ([1]; compared to enalapril, p<0.05): greater reductions in all measurements; changes in regional pulse wave velocities (carotid-femoral and carotid-radial) (FIG. 4) [1]: reduced regional pulse wave velocity; arrival time of the reflected wave (FIG. 4) ([1]; p<0.05): delayed reflected wave arrival time; characteristic impedance, a direct measure of aortic stiffness (FIG. 3) ([1]; without a change in aortic flow): significantly reduced; carotid-femoral pulse wave velocity [2]: favorable trend toward reduction"
"CCOC(=O)[C@H](CCc1ccccc1)N[C@@H](C)C(=O)N1CCC[C@H]1C(=O)O [Enalapril, reference compound]",shortening of the systolic ejection period,155 ± 20 mmHg,66 ± 8%,21 ± 10 %,81 ± 10 mmHg,111 ± 12 mmHg,74 ± 20 mmHg,11.9 ± 3.7 m/s,10.6 ± 1.8 m/s,63 ± 8 min⁻¹,73 ± 16 mL/s,314 ± 70 mL/s,2122 ± 462 dyne × sec / cm^5,75 ± 23 mmHg,156 ± 24 mmHg,231 ± 94 dyne × sec / cm^5,352 ± 163 dyne × sec / cm^5,0.49 ± 0.28 10^−5 cm^4 / dyne,120 ± 14 mmHg,58 ± 17 mmHg,"PbPf Amplitude ratio ([1]; 12 weeks, trough): 46 ± 8%; Pressure at ti ([1]; 12 weeks, trough): 139 ± 17 mmHg; Reflected wave arrival time, ti ([1]; 12 weeks, trough): 108 ± 25 ms; Reflected wave, Pb ([1]; 12 weeks, trough): 27 ± 8 mmHg; Systolic ejection period ([1]; 12 weeks, trough): 319 ± 27 ms; change in characteristic impedance [1]: −4±67 dyne×sec/cm^5; reduction in mean arterial pressure [1]: −12.0±8.1 mmHg; changes in regional pulse wave velocities (carotid-femoral and carotid-radial) (FIG. 4) [1]: reduced regional pulse wave velocity"

# Source: patent US20030144269A1, “Reducing pulse pressures and vascular stiffness in hypertensive patients by administering a vasopeptidase inhibitor” (priority 2001, published 2003)
